Measured values published in PubChem BioAssay AID248 (DTP/NCI, 2004).
“And” between values parts separate entries of the source, which are not always exact repeats. Equal values may be shown once. Toxic doses and inconclusive results are not listed. No stated cut-off is given here; in the data, active means T/C of 150% or more; inactive means T/C below 125%.

Test system: L1210 leukemia ip in BDF1 mice, survival T/C
Experiment: NCI In Vivo Anticancer Drug Screen. Data for tumor model L1210 Leukemia (intraperitoneal) in B6D2F1 (BDF1) mice
Conditions: endpoint: mean survival time, higher = longer survival
In short: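 Each compound was tested against a transplantable tumor grown in mice. The endpoint was survival, with treated animals benchmarked against vehicle controls as a simple ratio.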

[1] = dose: 100.0 mg/kg/injection, schedule: Q01DX001 (ip), vehicle: Klucel (hydroxypropylcellulose) (HPC)
[2] = dose: 100.0 mg/kg/injection, schedule: Q01DX009 (ip), vehicle: Klucel (hydroxypropylcellulose) (HPC)
[3] = dose: 100.0 mg/kg/injection, schedule: Q04DX003 (ip), vehicle: Klucel (hydroxypropylcellulose) (HPC)
[4] = dose: 200.0 mg/kg/injection, schedule: Q01DX009 (ip), vehicle: Klucel (hydroxypropylcellulose) (HPC)
[5] = dose: 200.0 mg/kg/injection, schedule: Q04DX003 (ip), vehicle: Klucel (hydroxypropylcellulose) (HPC)
[6] = dose: 400.0 mg/kg/injection, schedule: Q01DX009 (ip), vehicle: Klucel (hydroxypropylcellulose) (HPC)
[7] = dose: 400.0 mg/kg/injection, schedule: Q04DX003 (ip), vehicle: Klucel (hydroxypropylcellulose) (HPC)
[8] = dose: 100.0 mg/kg/injection, schedule: Q04DX002 (ip), vehicle: saline
[9] = dose: 200.0 mg/kg/injection, schedule: Q04DX002 (ip), vehicle: saline
[10] = dose: 400.0 mg/kg/injection, schedule: Q04DX002 (ip), vehicle: saline
[11] = dose: 100.0 mg/kg/injection, schedule: Q01DX001 (ip), vehicle: saline
[12] = dose: 100.0 mg/kg/injection, schedule: Q01DX009 (ip), vehicle: saline with Tween-80
[13] = dose: 100.0 mg/kg/injection, schedule: Q04DX003 (ip), vehicle: saline with Tween-80
[14] = dose: 200.0 mg/kg/injection, schedule: Q01DX009 (ip), vehicle: saline with Tween-80
[15] = dose: 200.0 mg/kg/injection, schedule: Q04DX003 (ip), vehicle: saline with Tween-80
[16] = dose: 400.0 mg/kg/injection, schedule: Q01DX009 (ip), vehicle: saline with Tween-80
[17] = dose: 400.0 mg/kg/injection, schedule: Q04DX003 (ip), vehicle: saline with Tween-80
[18] = dose: 75.0 mg/kg/injection, schedule: Q01DX001 (ip), vehicle: other
[19] = dose: 150.0 mg/kg/injection, schedule: Q01DX001 (ip), vehicle: other
[20] = dose: 50.0 mg/kg/injection, schedule: Q01DX001 (ip), vehicle: carboxymethylcellulose (CMC)
[21] = dose: 100.0 mg/kg/injection, schedule: Q01DX001 (ip), vehicle: carboxymethylcellulose (CMC)
[22] = dose: 200.0 mg/kg/injection, schedule: Q01DX001 (ip), vehicle: carboxymethylcellulose (CMC)
[23] = dose: 400.0 mg/kg/injection, schedule: Q01DX001 (ip), vehicle: carboxymethylcellulose (CMC)

Measured: T/C

CCOC(=O)c1c[nH]c2ccc([N+](=O)[O-])cc2c1=O
inactive: dose: 25.0 mg/kg/injection, schedule: Q01DX001 (ip), vehicle: Klucel (hydroxypropylcellulose) (HPC) 97 % of control | dose: 50.0 mg/kg/injection, schedule: Q01DX001 (ip), vehicle: Klucel (hydroxypropylcellulose) (HPC) 97 % of control | [1] 97 % of control

CC(OC(=O)c1ccccc1)c1ccccc1 (centres undefined)
inactive: [2] 94 % of control | [3] 101 % of control | [4] 100 % of control | [5] 103 % of control | [6] 96 % of control | [7] 101 % of control

CCOC(=O)NCC(CCCN1CCOCC1)(c1cccc2ccccc12)C(C)CC (centres undefined)
inactive: [8] 102 % of control | [9] 106 % of control | [10] 97 % of control

NCCCCC(N)C(=O)NCCCCCCN(CCCCCCNC(=O)C(N)CCCCN)C(=O)C(N)CCCCN (centres undefined)
inactive: [11] 92 % of control

COc1cccc2sc3ccccc3c(=O)c12
inactive: [12] 102 % of control | [13] 101 % of control | [14] 86 % of control | [15] 102 % of control | [16] 87 % of control | [17] 87 % of control

CC(=O)Nc1nc(/C=N/NC(N)=S)cc(=O)[nH]1
inactive: [18] 100 % of control | [19] 96 % of control | dose: 300.0 mg/kg/injection, schedule: Q01DX001 (ip), vehicle: other 105 % of control

O=C1NC2(CCCCC2)C(=O)N1CCCl
inactive: dose: 50.0 mg/kg/injection, schedule: Q04DX003 (ip), vehicle: saline 101 % of control | dose: 100.0 mg/kg/injection, schedule: Q04DX003 (ip), vehicle: saline 109 % of control | dose: 200.0 mg/kg/injection, schedule: Q04DX003 (ip), vehicle: saline 106 % of control | dose: 400.0 mg/kg/injection, schedule: Q04DX003 (ip), vehicle: saline 101 % of control

O=C(Nc1ccc(Br)cc1)c1cc(Br)cc(Br)c1O
inactive: dose: 1.56 mg/kg/injection, schedule: Q04DX002 (ip), vehicle: saline 100 % of control | dose: 3.12 mg/kg/injection, schedule: Q04DX002 (ip), vehicle: saline 100 % of control | dose: 6.25 mg/kg/injection, schedule: Q04DX002 (ip), vehicle: saline 97 % of control | dose: 12.5 mg/kg/injection, schedule: Q04DX002 (ip), vehicle: saline 103 % of control and 107 % of control | dose: 25.0 mg/kg/injection, schedule: Q04DX002 (ip), vehicle: saline 104 % of control and 89 % of control

O=C(O)c1ccc(N=Nc2ncc[nH]2)cc1
inactive: dose: 6.25 mg/kg/injection, schedule: Q01DX009 (ip), vehicle: saline with Tween-80 92 % of control | dose: 12.5 mg/kg/injection, schedule: Q01DX009 (ip), vehicle: saline with Tween-80 96 % of control | dose: 25.0 mg/kg/injection, schedule: Q01DX009 (ip), vehicle: saline with Tween-80 96 % of control | dose: 50.0 mg/kg/injection, schedule: Q01DX009 (ip), vehicle: saline with Tween-80 87 % of control

CCCCCC(=O)OC1CCCCC1C1CCCCC1 (centres undefined)
inactive: [20] 96 % of control | [21] 94 % of control | [22] 100 % of control | [23] 96 % of control

CCOc1ccccc1NC(=O)Nc1cccc(Cl)c1
inactive: [3] 100 % of control | [4] 94 % of control | [5] 100 % of control | [6] 97 % of control | [7] 104 % of control

O=C(NCCCNC(=O)Nc1cccc(C2=NCCCN2)c1)Nc1cccc(C2=NCCCN2)c1
inactive: dose: 0.5 mg/kg/injection, schedule: Q01DX Z (ip), vehicle: carboxymethylcellulose (CMC) 104 % of control | dose: 1.0 mg/kg/injection, schedule: Q01DX Z (ip), vehicle: carboxymethylcellulose (CMC) 106 % of control | dose: 2.0 mg/kg/injection, schedule: Q01DX Z (ip), vehicle: carboxymethylcellulose (CMC) 96 % of control

Cc1cc2oc(=O)c3c(c2c(O)c1CN1CCN(C)CC1)CCCC3
inactive: [11] 95 % of control | dose: 200.0 mg/kg/injection, schedule: Q01DX001 (ip), vehicle: saline 92 % of control

COc1ccc2[nH]c(=O)ccc2c1
inactive: dose: 300.0 mg/kg/injection, schedule: Q01DX001 (ip), vehicle: Klucel (hydroxypropylcellulose) (HPC) 98 % of control

CC1CC(C)(C)N=C(C(C)C)O1 (centres undefined)
inactive: dose: 12.5 mg/kg/injection, schedule: Q01DX009 (ip), vehicle: saline 100 % of control | dose: 25.0 mg/kg/injection, schedule: Q01DX009 (ip), vehicle: saline 102 % of control | dose: 50.0 mg/kg/injection, schedule: Q01DX009 (ip), vehicle: saline 98 % of control | dose: 50.0 mg/kg/injection, schedule: Q04DX003 (ip), vehicle: saline with Tween-80 95 % of control | dose: 100.0 mg/kg/injection, schedule: Q01DX009 (ip), vehicle: saline 110 % of control | [13] 93 % of control

C=C(C)COP(=O)(OCC(=C)C)OCC(=C)C
inactive: [2] 97 % of control | [3] 97 % of control | [4] 100 % of control | [5] 100 % of control | [6] 103 % of control | [7] 92 % of control

CCN(CC)C(=O)Sc1ccc(SC(=O)N(CC)CC)cc1
inactive: dose: 12.5 mg/kg/injection, schedule: Q04DX002 (ip), vehicle: saline with Tween-80 90 % of control | dose: 25.0 mg/kg/injection, schedule: Q04DX002 (ip), vehicle: saline with Tween-80 97 % of control | dose: 50.0 mg/kg/injection, schedule: Q04DX002 (ip), vehicle: saline with Tween-80 93 % of control | [13] 107 % of control | [15] 102 % of control | [17] 97 % of control

O=C1c2cccc3cccc(c23)C1(Br)Br
inactive: [18] 101 % of control | [19] 104 % of control

COc1ccc(NC(C)=O)c(C)c1
inactive: [12] 99 % of control | [13] 112 % of control | [14] 96 % of control | [15] 119 % of control | [16] 103 % of control | [17] 96 % of control

O=C(Cc1ccccc1)OC1CC2CC1C1CCCC21 (centres undefined)
inactive: [20] 96 % of control | [21] 98 % of control | [22] 104 % of control | [23] 96 % of control

Oc1ccc2ccccc2c1Cc1ccccc1
inactive: [12] 99 % of control | [14] 89 % of control | [16] 92 % of control

CCCCCCN=C(N)c1ccc(NC(=O)c2ccc(C(=O)Nc3ccc(C(N)=NCCCCCC)cc3)cc2)cc1
inactive: dose: 0.62 mg/kg/injection, schedule: Q01DX015 (ip), vehicle: methylcellulose (MC) 101 % of control | dose: 1.25 mg/kg/injection, schedule: Q01DX015 (ip), vehicle: methylcellulose (MC) 95 % of control | dose: 2.5 mg/kg/injection, schedule: Q01DX015 (ip), vehicle: methylcellulose (MC) 103 % of control | dose: 5.0 mg/kg/injection, schedule: Q01DX015 (ip), vehicle: methylcellulose (MC) 112 % of control

OCC(O)C(O)C(O)CO (centres undefined)
inactive: [8] 107 % of control | [9] 104 % of control | [10] 96 % of control

Cc1ccc(S(=O)(=O)Nc2ccc([N+](=O)[O-])cc2O)cc1
inactive: [2] 97 % of control | [4] 101 % of control | [6] 94 % of control

O=C(O)C1=NNC(C(=O)O)=NN1
inactive: [1] 92 % of control | dose: 200.0 mg/kg/injection, schedule: Q01DX001 (ip), vehicle: Klucel (hydroxypropylcellulose) (HPC) 100 % of control | dose: 400.0 mg/kg/injection, schedule: Q01DX001 (ip), vehicle: Klucel (hydroxypropylcellulose) (HPC) 104 % of control

COC(=O)NS(=O)(=O)c1cccs1
inactive: dose: 100.0 mg/kg/injection, schedule: Q04DX002 (ip), vehicle: other 98 % of control | dose: 200.0 mg/kg/injection, schedule: Q04DX002 (ip), vehicle: other 94 % of control | dose: 400.0 mg/kg/injection, schedule: Q04DX002 (ip), vehicle: other 102 % of control
